Some test systems named below: SR leukemia; MDA-MB-435; T-47D breast; OVCAR-8 ovarian; CAKI-1 renal; KM12 colon; MALME-3M melanoma; SF-295 CNS; HOP-92 NSCLC; SN12C renal; HT29 colon; HCC-2998 colon; COLO 205 colon; HCT-116 colon; OVCAR-5 ovarian; NCI-H23 lung; DU-145 prostate; OVCAR-4 ovarian.
Experiment in all cases: DTP human tumour cell line panel, 48 h

Each structure is given as a SMILES string.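 These data come from cells grown in 96-well plates and exposed to compound for 48 hours at five concentrations. TGI: concentration producing complete growth inhibition.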 Where only a bound is given, the exact number is not on record here.

Regarding `O=C(O)c1ccc(Nc2nc3ccccc3nc2-c2cccs2)cc1`, the TGI with SR leukemia, in the assay on MDA-MB-435, in the assay with T-47D breast, with OVCAR-8 ovarian, in the assay on CAKI-1 renal and in the assay with KM12 colon was greater than 100 µM throughout. The TGI with MALME-3M melanoma, in the assay with SF-295 CNS, in the assay with HOP-92 NSCLC, in the assay on SN12C renal, with HT29 colon and in the assay on HCC-2998 colon was greater than 100 µM each time. Also, the concentration for total growth inhibition (TGI) in the assay with COLO 205 colon, with HCT-116 colon, in the assay with OVCAR-5 ovarian, with NCI-H23 lung, with DU-145 prostate and in the assay with OVCAR-4 ovarian was greater than 100 µM throughout.

`COc1ccc(-c2c(CN3CCOCC3)sc3nc4ccccc4n23)cc1`: the TGI is 15.1 µM with SR leukemia; 14.4 µM in the assay with MDA-MB-435; greater than 100 µM with T-47D breast; greater than 100 µM in the assay on OVCAR-8 ovarian; greater than 100 µM in the assay on CAKI-1 renal; greater than 100 µM in the assay on KM12 colon. Moreover, the total growth inhibition concentration (TGI) with MALME-3M melanoma was greater than 100 µM; in the assay with SF-295 CNS it was greater than 100 µM; in the assay with HOP-92 NSCLC, greater than 100 µM; in the assay with SN12C renal, greater than 100 µM; in the assay on HT29 colon, 31.1 µM; in the assay on HCC-2998 colon, 99.2 µM. The TGI was 49.4 µM with COLO 205 colon; greater than 57 µM with HCT-116 colon; greater than 74.7 µM in the assay with OVCAR-5 ovarian; greater than 100 µM in the assay on NCI-H23 lung; greater than 100 µM in the assay with DU-145 prostate; greater than 100 µM in the assay with OVCAR-4 ovarian.

As for `NC1=NN(c2ccccc2)C2(O)c3ccncc3C3=NN(c4ccccc4)C(=O)C132` (centres undefined), the TGI in the assay on SR leukemia, with MDA-MB-435, with T-47D breast, in the assay on OVCAR-8 ovarian, in the assay with CAKI-1 renal and in the assay with KM12 colon was greater than 100 µM throughout. Moreover, the TGI in the assay on MALME-3M melanoma, in the assay with SF-295 CNS, with HOP-92 NSCLC, in the assay with SN12C renal, in the assay on HT29 colon and in the assay on HCC-2998 colon was greater than 100 µM throughout. Further, the TGI in the assay with COLO 205 colon, in the assay with HCT-116 colon, in the assay on OVCAR-5 ovarian, in the assay on NCI-H23 lung, in the assay with DU-145 prostate and in the assay on OVCAR-4 ovarian was greater than 100 µM each time.

As usually defined, the TGI is the concentration at which net growth stops.

The values above are taken from PubChem BioAssay (NCI).
